A short description of this data set: gradient 5% acetonitrile 3 min, to 50% in 2 min, to 85% in 15 min, held 3 min, 100 µL/min. The conditions noted are these: column: Zorbax Extend-C18 2.1 x 50 mm; eluents: water / acetonitrile, 0.1% formic acid. The method, boiled down: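 Each retention time is based on an adduct peak selected computationally and verified by manual inspection. Measurements used HPLC–quadrupole time-of-flight mass spectrometry in positive and negative ionization mode on mixtures of ~100 pure standards. Chromatography ran on a Zorbax Extend-C18 column (2.1 × 50 mm, 1.8 μm) at 100 μL/min with water and acetonitrile, each containing 0.1% formic acid, and dead and dwell volumes of 40 μL and 900 μL.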
As to `O=C(Nc1cnc(N2CCN(CCOc3ccc(Cl)cc3)CC2)c(C(=O)O)c1)c1ccc(F)cc1`, the RP-LC retention time worked out at 694 s.
In turn, `CCc1ccc(C2=C(C)C(N3CCCN(C(=O)C4CCOC4)CC3)=NS2(=O)=O)cc1` (configuration not stated) yielded an RP-LC retention time of 749 s.
The molecule `CCN(CC)S(=O)(=O)c1ccc2c(c1)CC(C(=O)NCc1ccc(N(C)C)cc1)N2C(C)=O` (configuration not stated) gave an RP-LC retention time of 669 s.
`O=C(c1ccc(-c2cccs2)nc1)N1CCCCC1`: the RP-LC retention time was determined as 813 s.
For `Cc1cc(=O)n(CC(=O)N2CCc3ccccc32)c(N2CCCCC2)n1` the value was 679 s; for `COc1ccc(-c2c(C(=O)NCCN3CCOCC3)nc3ccccn23)cc1`, 601 s.
As for `Cc1cc(-n2nnc(C(=O)N3CCC(N4CCCCC4)CC3)c2-c2ccncc2)ccc1F`, the RP-LC retention time came to 602 s.
As for `Cc1cc(C)cc(NC(=O)c2[nH]c(C)c(S(=O)(=O)N3CCCC3)c2C)c1`, the RP-LC retention time was 950 s.
For `CCN1CCCC1CNC(=O)C1CCN(S(=O)(=O)c2ccc(-c3noc(C4CC4)n3)cc2)CC1` (configuration not stated) the value was 679 s; for `COc1ccc(NC(=O)Cn2nc(C(=O)N3CCCC3)c3ccccc32)c(OC)c1`, 822 s.
Then `Cc1nccn1CC(=O)N1CCCC(OCc2nc(C(C)C)no2)C1` (configuration not stated), with 596 s; and `Cc1oc(C2CCN(C(=O)Cc3c(F)cccc3Cl)CC2)nc1C(=O)N(C)C`, with 747 s; and `CN1CCN(CCCNC(=O)C2CCN(C(=O)c3ccc(-n4ccc5ccccc54)s3)CC2)CC1`, with 630 s.
`Cc1cc(C(=O)NC(C)C)c2cc(F)ccc2n1` showed an RP-LC retention time of 639 s.
In the case of `Cc1cnc(-c2ccccc2)n1CCNS(=O)(=O)N(C)C`, the RP-LC retention time was found to be 572 s.
For the molecule `O=[N+]([O-])c1c(-c2nc3ccc(Cl)cn3c2Nc2ccc(Cl)cc2)ccc2c1OCO2`, the RP-LC retention time stood at 1000 s.
Take `CCOC(=O)c1nc(NCCc2ccc(C)cc2)c2c(CC)noc2n1`: the RP-LC retention time was found to be 1080 s.
In turn, `COc1ccc(C(=O)Nc2nccnc2C(=O)NCCN2CCCCC2)cc1` displayed an RP-LC retention time of 590 s.
`COCCOC1CCC12CCN(C(=O)c1cnc[nH]1)CC2` (configuration not stated) displayed an RP-LC retention time of 575 s.
For `Cc1oc(-c2ccc(Cl)cc2)nc1CN1CCC(C(=O)NCc2ccccn2)CC1` the value was 584 s; for `Cc1ccc(C(=O)Nc2cc(-c3cccs3)no2)cc1`, 993 s.
As for `CC1=C(c2ccc(C)c(C)c2)S(=O)(=O)N=C1N1CCCN(C(=O)c2ccsc2)CC1`, the RP-LC retention time was 858 s.
`COc1ccc(S(=O)(=O)N2CCCC(C(=O)Nc3ccc(C(N)=O)cc3)C2)cc1OC` (configuration not stated) registered an RP-LC retention time of 682 s.
Then `CCn1ccc(C(=O)N2CCN(c3nc4cccnc4n(C)c3=O)CC2)n1`, with 721 s; and `CCCCN(C)C(=O)c1c(C)oc2ccn(Cc3ccc(F)cc3)c(=O)c12`, with 868 s.
`Cc1nn(-c2ccccc2)c(C)c1S(=O)(=O)N1CCC(C(=O)Nc2cccc(Cl)c2C)CC1` yielded an RP-LC retention time of 1000 s.
On to `Cc1ccc(Nc2c(-c3ccc(C)cc3)nc3ccc(C)cn23)cc1`, for which the RP-LC retention time was determined as 797 s.
Consider `Cn1ncc2c(N3CCSCC3)nc(C(=O)N3CCN(Cc4ccccc4)CC3)nc21`, for which the RP-LC retention time is 600 s.
Regarding `Cc1nc(Cn2cccc2C(=O)Nc2ccc(Cl)cc2)no1`, the RP-LC retention time was 899 s.
Molecule `CCN(CC)C(=O)c1cc(=O)n(CC(=O)NC2CCCC2)c2ccccc12` displayed an RP-LC retention time of 685 s.
Consider `CCc1nc(-c2csc(S(=O)(=O)N3CCC(C(=O)Nc4ccc(C)c(C)c4)CC3)c2)no1`, for which the RP-LC retention time amounted to 660 s.
In turn, `Cc1cccc(NC(=O)N2CCC(c3nc(C(=O)N(C)C)c(C)o3)CC2)c1` had an RP-LC retention time of 689 s.

Values taken from the METLIN SMRT retention time set (Domingo-Almenara et al. 2019).
